These results are taken from article PMC5963102 (International Journal for Parasitology: Drugs and Drug …, 2017).

The target of test [1] is Ode levamisole nAChR (Ode-UNC-29:Ode-UNC-38:Ode-UNC-63:Ode-ACR-8) (Oesophagostomum dentatum, UniProt E5KIX9+L7MMZ7+V5J2B2+V5J336). Briefly: Two-electrode voltage-clamp on Ode levamisole receptors expressed in Xenopus laevis oocytes. The format is cell-based. Here is the method: (§1) All nAChR subunit and ancillary factor cRNAs from A. suum (Asu-acr-16 and Asu-ric-3), O. dentatum (Ode-unc-29, Ode-unc-38, […] and Ode-acr-8) and H. contortus (Hco-ric-3, Hco-unc-50 and Hco-unc-74) were prepared as previously described ([Abongwa et al., 2016a], [Buxton et al., 2014]). Briefly, defolliculated X. laevis oocytes were obtained from Ecocyte Bioscience (Austin, TX, USA). A Nanoject II microinjector (Drummond Scientific, Broomall, PA, USA) was used to inject cRNA into the cytoplasm at the animal pole region of the oocytes. Homomeric nAChRs comprising Asu-ACR-16 subunits were expressed by co-injecting 25 ng of Asu-acr-16 with 5 ng of Asu-ric-3 in a total volume of 50 nl in nuclease-free water. Heteromeric nAChRs from O. dentatum were expressed by co-injecting 1.8 ng of each subunit cRNA that make up the levamisole (Ode-unc-29, Ode-unc-38, […] and Ode-acr-8) or pyrantel/tribendimidine (Ode-unc-29, Ode-unc-38 and Ode-unc-63) receptor with 1.8 ng of each H. contortus ancillary factor (Hco-ric-3, Hco-unc-50 and Hco-unc-74) in a total volume of 36 nl in nuclease-free water. Injected oocytes were transferred to 96-well microtiter plates containing 200 μl incubation solution (100 mM NaCl, 2 mM KCl, 1.8 mM CaCl2·2H20, 1 mM MgCl2·6H20, 5 mM HEPES, 2.5 mM Na pyruvate, 100 U·ml^−1penicillin and 100 μg ml^−1 streptomycin, pH 7.5) and incubated at 19 °C for 5–7 days to allow for functional receptor expression. Incubation solution was changed daily.
Ode levamisole nAChR (Ode-UNC-29:Ode-UNC-38:Ode-UNC-63:Ode-ACR-8), sequence (L7MMZ7 entry or part of it): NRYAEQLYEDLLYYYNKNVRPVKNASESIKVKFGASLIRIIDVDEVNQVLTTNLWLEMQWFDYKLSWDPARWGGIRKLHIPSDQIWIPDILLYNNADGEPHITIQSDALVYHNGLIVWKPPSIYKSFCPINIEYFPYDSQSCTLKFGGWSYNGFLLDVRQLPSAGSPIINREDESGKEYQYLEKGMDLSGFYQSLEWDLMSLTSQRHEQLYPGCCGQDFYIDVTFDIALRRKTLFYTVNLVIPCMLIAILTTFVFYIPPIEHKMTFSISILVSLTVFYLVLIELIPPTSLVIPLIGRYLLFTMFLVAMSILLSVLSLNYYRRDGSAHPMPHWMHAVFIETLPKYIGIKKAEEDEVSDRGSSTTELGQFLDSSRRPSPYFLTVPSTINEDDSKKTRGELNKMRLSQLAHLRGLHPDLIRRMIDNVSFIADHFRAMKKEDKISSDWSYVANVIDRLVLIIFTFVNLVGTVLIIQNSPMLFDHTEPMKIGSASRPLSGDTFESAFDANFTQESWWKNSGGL
Ode levamisole nAChR (Ode-UNC-29:Ode-UNC-38:Ode-UNC-63:Ode-ACR-8), sequence (V5J2B2 entry or part of it): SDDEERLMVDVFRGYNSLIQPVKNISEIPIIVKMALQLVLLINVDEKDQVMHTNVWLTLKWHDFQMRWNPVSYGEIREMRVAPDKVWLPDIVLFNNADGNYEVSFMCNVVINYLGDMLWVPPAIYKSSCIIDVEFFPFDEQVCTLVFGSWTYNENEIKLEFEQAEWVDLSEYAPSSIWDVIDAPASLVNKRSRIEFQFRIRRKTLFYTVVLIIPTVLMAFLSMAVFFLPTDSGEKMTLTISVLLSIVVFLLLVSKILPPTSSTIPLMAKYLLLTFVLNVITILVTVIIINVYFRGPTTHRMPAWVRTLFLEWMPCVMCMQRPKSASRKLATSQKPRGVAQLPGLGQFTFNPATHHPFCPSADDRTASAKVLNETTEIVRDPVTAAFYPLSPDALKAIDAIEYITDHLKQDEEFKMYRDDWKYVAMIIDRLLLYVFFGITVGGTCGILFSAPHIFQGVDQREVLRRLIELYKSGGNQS
Ode levamisole nAChR (Ode-UNC-29:Ode-UNC-38:Ode-UNC-63:Ode-ACR-8), sequence (E5KIX9 entry or part of it): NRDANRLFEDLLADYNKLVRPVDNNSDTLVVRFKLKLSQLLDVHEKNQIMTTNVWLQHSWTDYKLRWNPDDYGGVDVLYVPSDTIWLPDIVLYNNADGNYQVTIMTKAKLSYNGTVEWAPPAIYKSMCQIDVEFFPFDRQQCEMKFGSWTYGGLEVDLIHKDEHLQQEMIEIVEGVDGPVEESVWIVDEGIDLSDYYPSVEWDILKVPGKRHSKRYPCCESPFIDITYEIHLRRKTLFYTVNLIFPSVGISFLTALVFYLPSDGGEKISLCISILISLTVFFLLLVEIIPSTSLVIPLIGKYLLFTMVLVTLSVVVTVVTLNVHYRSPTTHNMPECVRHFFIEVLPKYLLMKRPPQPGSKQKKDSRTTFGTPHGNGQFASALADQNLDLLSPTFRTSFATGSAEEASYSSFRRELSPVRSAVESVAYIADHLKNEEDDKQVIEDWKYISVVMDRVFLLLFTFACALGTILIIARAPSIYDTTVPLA
Ode levamisole nAChR (Ode-UNC-29:Ode-UNC-38:Ode-UNC-63:Ode-ACR-8), sequence (V5J336 entry or part of it): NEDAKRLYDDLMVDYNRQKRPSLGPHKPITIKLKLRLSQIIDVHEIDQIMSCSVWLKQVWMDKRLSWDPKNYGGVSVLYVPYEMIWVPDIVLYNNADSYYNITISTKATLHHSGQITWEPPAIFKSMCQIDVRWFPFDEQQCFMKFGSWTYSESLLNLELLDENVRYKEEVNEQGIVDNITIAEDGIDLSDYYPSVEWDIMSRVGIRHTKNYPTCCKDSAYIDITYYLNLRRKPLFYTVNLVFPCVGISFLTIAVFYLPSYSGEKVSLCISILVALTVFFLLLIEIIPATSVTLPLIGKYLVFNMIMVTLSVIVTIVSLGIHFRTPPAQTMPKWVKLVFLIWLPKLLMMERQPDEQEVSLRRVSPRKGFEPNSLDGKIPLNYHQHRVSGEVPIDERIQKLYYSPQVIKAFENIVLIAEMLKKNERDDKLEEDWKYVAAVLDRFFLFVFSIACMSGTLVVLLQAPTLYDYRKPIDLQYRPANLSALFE
Currents produced by activation of expressed Asu-ACR-16 and Ode levamisole sensitive and Ode pyrantel/tribendimidine sensitive receptors were recorded using the two-electrode voltage-clamp electrophysiology technique as previously described ([Abongwa et al., 2016a], [Buxton et al., 2014]). 100 μM BAPTA-AM was added to the oocyte incubation solution about 4 h prior to recording to prevent activation of endogenous calcium-activated chloride currents during recording. Recordings were made using an Axoclamp 2B amplifier (Molecular Devices, Sunnyvale, CA, USA) and data acquired on a computer with Clampex 10.3 (Molecular Devices, Sunnyvale, CA, USA). For all experiments, oocytes were voltage-clamped at −60 mV. […]
Electrophysiology data was measured with Clampfit 10.3 (Molecular devices, Sunnyvale CA, USA) and analyzed with GraphPad Prism 5.0 (GraphPad Software Inc., La Jolla, CA, USA). […] Concentration-response relationships (for each oocyte) were analyzed by fitting log concentration-response data points with the Hill equation as previously described ([Boulin et al., 2008]). % inhibition for monepantel was calculated using 100-Rmax for each experiment and plotted as mean ± s.e.m. on the concentration-inhibition plots. IC50's were calculated as previously described ([Zheng et al., 2016]). […]

A further test relates to A. suum muscle flaps. Put plainly: Muscle contraction assay, isometric contractions of Ascaris body muscle flaps. The format is cell-based, Ascaris suum. As to conditions: for EC50: Ascaris suum. Here is the method: Adult A. suum were collected from the IMES slaughterhouse, Belgrade, Serbia and maintained in Locke's solution (155 mM NaCl, 5 mM KCl, 2 mM CaCl2, 1.5 mM NaHCO3 and 5 mM glucose) at 32 °C for 5 days. Locke's solution was changed daily. Ascaris muscle flaps for contraction studies were prepared as described in [Trailović et al. (2015)]. Briefly, 1 cm muscle body flaps were prepared by dissecting the anterior 2–3 cm part of the worm. A force transducer in an experimental bath containing 20 ml APF (23 mM NaCl, 110 mM Na acetate, 24 mM KCl, 6 mM CaCl2, 5 mM MgCl2, 11 mM glucose, 5 mM HEPES, pH 7.6) and 0.1% DMSO and bubbled with nitrogen was attached to each muscle flap. The bath was maintained at 37 °C during which isometric contractions of each flap were monitored on a PC computer using a BioSmart interface and eLAB software (EIUnit, Belgrade). The system allows real time recording, display and analysis of experimental data.
Isometric contractions of each Ascaris muscle flap in the absence and presence of monepantel were monitored on a PC computer using eLAB software (EIUnit, Belgrade). GraphPad Prism 5.0 (GraphPad Software Inc., La Jolla, CA, USA) was used to analyze the data. […] Single concentration-response relationships were fitted to the data as described in Section 2.5.1.

Test [2] deals with Asu-ACR-16 (nicotine sensitive nAChR) (Ascaris suum, UniProt F1KYJ9). Put plainly: Two-electrode voltage-clamp on Asu-ACR-16 nAChR expressed in Xenopus laevis oocytes. The format is cell-based. On the procedure: as §1
Asu-ACR-16 (nicotine sensitive nAChR), sequence (F1KYJ9 entry or part of it): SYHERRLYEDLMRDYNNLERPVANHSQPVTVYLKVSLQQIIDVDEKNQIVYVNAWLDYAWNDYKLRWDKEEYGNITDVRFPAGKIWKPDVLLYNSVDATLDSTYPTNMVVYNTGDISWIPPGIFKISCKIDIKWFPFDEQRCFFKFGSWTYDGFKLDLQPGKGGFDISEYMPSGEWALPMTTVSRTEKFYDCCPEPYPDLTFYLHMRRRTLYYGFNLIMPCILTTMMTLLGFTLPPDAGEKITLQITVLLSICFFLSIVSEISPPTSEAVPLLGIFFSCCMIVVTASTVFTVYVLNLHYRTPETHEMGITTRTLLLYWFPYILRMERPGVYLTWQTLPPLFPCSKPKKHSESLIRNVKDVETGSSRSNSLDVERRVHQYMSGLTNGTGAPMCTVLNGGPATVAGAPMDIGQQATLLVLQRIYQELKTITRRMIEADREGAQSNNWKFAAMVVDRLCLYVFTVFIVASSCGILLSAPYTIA
(§2) Currents produced by activation of expressed Asu-ACR-16 and Ode levamisole sensitive and Ode pyrantel/tribendimidine sensitive receptors were recorded using the two-electrode voltage-clamp electrophysiology technique as previously described ([Abongwa et al., 2016a], [Buxton et al., 2014]). 100 μM BAPTA-AM was added to the oocyte incubation solution about 4 h prior to recording to prevent activation of endogenous calcium-activated chloride currents during recording. Recordings were made using an Axoclamp 2B amplifier (Molecular Devices, Sunnyvale, CA, USA) and data acquired on a computer with Clampex 10.3 (Molecular Devices, Sunnyvale, CA, USA). For all experiments, oocytes were voltage-clamped at −60 mV. Microelectrodes for impaling oocytes were pulled using a Flaming/Brown horizontal electrode puller (Model P-97; Sutter Instruments, Novato, CA, USA). The microelectrodes were filled with 3 M KCl and their tips carefully broken with a piece of tissue paper to attain a resistance of 2–5 MΩ in recording solution (100 mM NaCl, 2.5 mM KCl, 1 mM CaCl2·2H2O and 5 mM HEPES, pH 7.3).
(§3) Electrophysiology data was measured with Clampfit 10.3 (Molecular devices, Sunnyvale CA, USA) and analyzed with GraphPad Prism 5.0 (GraphPad Software Inc., La Jolla, CA, USA). […] Concentration-response relationships (for each oocyte) were analyzed by fitting log concentration-response data points with the Hill equation as previously described ([Boulin et al., 2008]). % inhibition for monepantel was calculated using 100-Rmax for each experiment and plotted as mean ± s.e.m. on the concentration-inhibition plots. IC50's were calculated as previously described ([Zheng et al., 2016]). We used one-way ANOVA to test for statistical differences among treatment groups. If the group means were statistically different (p < .05), we used the Tukey multiple comparison test to determine significant differences between groups.
On the technique in general: In two-electrode clamp one electrode senses voltage and the other passes current.

The target of test [3] is Ode pyrantel/tribendimidine nAChR (Ode-UNC-29:Ode-UNC-38:Ode-UNC-63) (Oesophagostomum dentatum, UniProt E5KIX9+V5J2B2+V5J336). Briefly: Two-electrode voltage-clamp on Ode pyrantel/tribendimidine receptors expressed in Xenopus laevis oocytes. It counts as cell-based. On the procedure:
as §1, §2, §3

Test [4] relates to C. elegans ACR-20 receptors. Further details: method as in Baur et al., 2015. Conditions: ref Baur et al., 2015, cited from earlier work.
In test [5] the test system is H. contortus MPTL-1 receptors. Details: method as in Baur et al., 2015. As to conditions: ref Baur et al., 2015, cited from earlier work.
Another test has as its system A. suum. Details: method as in Tritten et al., 2011. Conditions: 600 mg/kg; ref Tritten et al., 2011; cited from earlier work.
The mark [6] stands for this setting: read-out: acetylcholine Rmax (mean ± s.e.m.).

In general, EC50 refers to the midpoint of the concentration-response curve. In general, IC50 refers to the midpoint of a concentration-inhibition curve. Higher therefore signals a need for much substance.

Structures are written as SMILES. Like-named read-outs stand apart in the source and are kept apart here.

Ode pyrantel/tribendimidine nAChR (Ode-UNC-29:Ode-UNC-38:Ode-UNC-63), sequence (V5J336 entry or part of it): as the sequence (V5J336 entry or part of it) above
Ode pyrantel/tribendimidine nAChR (Ode-UNC-29:Ode-UNC-38:Ode-UNC-63), sequence (V5J2B2 entry or part of it): as the sequence (V5J2B2 entry or part of it) above
Ode pyrantel/tribendimidine nAChR (Ode-UNC-29:Ode-UNC-38:Ode-UNC-63), sequence (E5KIX9 entry or part of it): as the sequence (E5KIX9 entry or part of it) above

For the compound `CC(=O)OCC[N+](C)(C)C` [Acetylcholine], the Emax in test [1] (setting [6]) came to 108.8 ± 1%; in test [2] (setting [6]), 97.5 ± 1.2%; in test [3] (setting [6]), 118 ± 4.5%. The EC50 in the test with A. suum muscle flaps (read-out: acetylcholine EC50 (contraction)) was 5.3 µM; in the test with A. suum muscle flaps (read-out: acetylcholine log EC50 ± s.e.m. (contraction) (converted)) it was 5.01 µM; in test [3], 11.3 ± 1.3 µM. Moreover, in the test on A. suum muscle flaps (acetylcholine alone (control)), the “acetylcholine Rmax (mean ± s.e.m.), contraction” value came out at 1.7 ± 0.4 g.
For the compound `C[C@](C#N)(COc1cc(C#N)ccc1C(F)(F)F)NC(=O)c1ccc(SC(F)(F)F)cc1` [monepantel, N-[(2S)-2-cyano-1-[5-cyano-2-(trifluoromethyl)phenoxy]propan-2-yl]-4-(trifluoromethylsulfanyl)benzamide], the IC50 was 5 ± 0.5 µM in test [1], 0.2 µM in test [2] and 1.7 ± 0.7 µM in test [3]. In addition, the “type of antagonism of acetylcholine responses” value in test [1] (co-applied with acetylcholine) is “non-competitive antagonist”; in test [2] (co-applied with acetylcholine), “non-competitive antagonism”; in test [3] (co-applied with acetylcholine) it was “non-competitive antagonism”. Further, the “agonist action (receptor activation)” value is given as “failed to activate” in test [1] (monepantel applied alone), “did not cause activation” in test [2] (monepantel applied on its own) and “did not activate” in test [3] (monepantel alone). In addition, the “concentration at which it acts as direct agonist” value in test [4] (high concentrations) and in test [5] (high concentrations) was above 0.1 µM throughout. Moreover, the “concentration at which it acts as positive allosteric modulator” value in test [4] (low concentrations) and in test [5] (low concentrations) was below 1 nM throughout. For the same compound, the “type of antagonism of acetylcholine induced contractions” value in the test on A. suum muscle flaps (1-30 μM monepantel) was “mixture of competitive and non-competitive antagonism”. In addition, the “acetylcholine Rmax (mean ± s.e.m.), contraction” value with A. suum muscle flaps (in the presence of 3 μM monepantel) is reported as 1.1 ± 0.3 g; with A. suum muscle flaps (in the presence of 10 μM monepantel), 1.1 ± 0.5 g; in the test on A. suum muscle flaps (in the presence of 30 μM monepantel), 0.5 ± 0.4 g. In addition, the “effect on baseline tension” value with A. suum muscle flaps (monepantel on its own) is given as “did not produce any significant change in baseline tension”. Besides, the “in vivo activity against A. suum” value in the test with A. suum is “lack in vivo activity”. Also, the maximum inhibition in test [2] (component with IC50 1.6 nM) is 40%; in test [2] (component with IC50 0.2 μM), around 100%.
